The text below walks through data of ChEMBL document CHEMBL1201862, “PubChem BioAssay data set” (2004).

Some test systems named below: MDA-N; SR; 786-0; SK-MEL-2; SK-MEL-5; M14; SF-268; SK-OV-3; NCI-H460; UACC-257; IGROV-1; HOP-92; Hs-578T; K562; HCT-116; NCI-H522; SW-620; SN12C; HCC 2998.
Holding throughout (test): DTP human tumour cell line panel, 48 h

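How tested: cells in 96-well plates exposed to compound for 48 hours at five concentrations. At the GI50, growth is halved.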 The source made the active and inactive calls. Cut-off read from the data, not from the text of the source: active = GI50 up to about 1.1 µM and inactive = higher.

Consider `O=[N+]([O-])c1cc(Cc2cc([N+](=O)[O-])c3cccnc3c2O)c(O)c2ncccc12`, for which the GI50 in the test with MDA-N is 10.6 µM (inactive); with SR, 0.845 µM (active); in the test on 786-0, 5.82 µM (inactive); in the test on SK-MEL-2, 11.1 µM (inactive); in the test on SK-MEL-5 it was 6.79 µM (inactive); with M14, 6.07 µM (inactive). Further, the GI50 with SF-268 was 3.52 µM (inactive); in the test with SK-OV-3, 15.7 µM (inactive); in the test with NCI-H460, 2.18 µM (inactive); in the test with UACC-257 it was 2.65 µM (inactive); in the test with IGROV-1, 3.31 µM (inactive); with HOP-92, 5.96 µM (inactive). Further, the GI50 in the test with Hs-578T was 9.51 µM (inactive); in the test on K562 it was 4.16 µM (inactive); with HCT-116 it was 3.35 µM (inactive); in the test on NCI-H522, 3.51 µM (inactive); in the test on SW-620, 5.94 µM (inactive); with SN12C, 4.55 µM (inactive).

As for `c1ccc(/N=C2\SC(=NNc3ccccc3)S\C2=N/c2ccccc2)cc1`, the GI50 was 77.6 µM (inactive) in the test on MDA-N; > 100 µM (inactive) with SR; > 100 µM (inactive) with 786-0; 8.18 µM (inactive) in the test with SK-MEL-2; 44.9 µM (inactive) with SK-MEL-5; > 100 µM (inactive) with SF-268. Further, the GI50 in the test on SK-OV-3 was > 100 µM (inactive); in the test with NCI-H460, 15.5 µM (inactive); in the test with UACC-257 it was 65.5 µM (inactive); in the test on IGROV-1, 54.2 µM (inactive); in the test on HOP-92, 70.8 µM (inactive); with Hs-578T, 32.8 µM (inactive). The GI50 is > 100 µM (inactive) with K562; 37.8 µM (inactive) in the test on HCC 2998; 50.4 µM (inactive) with HCT-116; 15.3 µM (inactive) in the test on NCI-H522; > 100 µM (inactive) in the test with SW-620; 79.3 µM (inactive) in the test on SN12C.

For the molecule `CC1=CCC[C@]2(C)C1=CC(=O)O[C@H]2c1ccoc1`, the GI50 with MDA-N, in the test on SR, in the test on 786-0, in the test with SK-MEL-2, in the test with SK-MEL-5 and with SF-268 was > 100 µM (inactive) each time. Further, the GI50 in the test with SK-OV-3, in the test with NCI-H460, in the test with UACC-257, in the test with IGROV-1, in the test on HOP-92 and in the test on Hs-578T was > 100 µM (inactive) throughout. Also, the GI50 in the test with K562, in the test with HCC 2998, in the test with HCT-116, in the test with NCI-H522, with SW-620 and in the test on SN12C was > 100 µM (inactive) each time.

Consider `CO[P@@]1(=O)O[C@@H](c2ccccc2)[C@H](O)[C@@]1(O)c1ccccc1`, for which the GI50 in the test with MDA-N is > 100 µM (inactive); in the test with SR, 10.2 µM (inactive); with 786-0 it was > 100 µM (inactive); in the test with SK-MEL-2 it was > 100 µM (inactive); with SK-MEL-5 it was > 100 µM (inactive); with M14, > 100 µM (inactive). The GI50 in the test with SF-268, with SK-OV-3, in the test with NCI-H460, in the test with UACC-257, in the test on IGROV-1 and in the test on HOP-92 was > 100 µM (inactive) in each case. Further, the GI50 in the test with Hs-578T was 91.8 µM (inactive); in the test with K562, > 100 µM (inactive); with HCT-116, > 100 µM (inactive); with NCI-H522, > 100 µM (inactive); in the test with SW-620, > 100 µM (inactive); with SN12C, > 100 µM (inactive).

`COC(=O)[C@@H]1C[C@@H]2c3ccccc3N(S(=O)(=O)c3ccccc3)[C@@H]2N1C(=O)OC`: the GI50 in the test on MDA-N, with SR, with 786-0, in the test with SK-MEL-2, in the test with SK-MEL-5 and in the test on SF-268 was > 100 µM (inactive) throughout. The GI50 in the test with SK-OV-3, in the test on NCI-H460, with UACC-257, in the test on IGROV-1, in the test on HOP-92 and with Hs-578T was > 100 µM (inactive) throughout. In addition, the GI50 in the test with K562, in the test with HCC 2998, in the test on HCT-116, with NCI-H522, with SW-620 and with SN12C was > 100 µM (inactive) throughout.

For the molecule `COc1cc(S(=O)(=O)Nc2ccc(-c3csc(N4C(=O)C(C)SC4c4ccccc4O)n3)cc2)ccc1Cl` (stereo not given), the GI50 in the test on MDA-N is 28.6 µM (inactive); in the test on SR, 36.2 µM (inactive); with 786-0 it was 35.1 µM (inactive); in the test with SK-MEL-2, 42 µM (inactive); with SK-MEL-5 it was 32.1 µM (inactive); with M14, 40.2 µM (inactive). For the same molecule, the GI50 in the test on SF-268 is 21.3 µM (inactive); with SK-OV-3, > 100 µM (inactive); in the test on IGROV-1 it was 35.8 µM (inactive); in the test with HOP-92, 31.3 µM (inactive); in the test with Hs-578T it was 31.2 µM (inactive); with K562, 32.8 µM (inactive). Also, the GI50 is 30.1 µM (inactive) in the test with HCT-116, 18.3 µM (inactive) in the test on NCI-H522, 34.8 µM (inactive) in the test on SW-620 and 40.9 µM (inactive) in the test on SN12C.

With `Nc1ncc2c(n1)-c1ccccc1OC2NC1CC1` (stereo not given), the GI50 in the test with MDA-N, with SR, with 786-0, with SK-MEL-2, with SK-MEL-5 and in the test with M14 was > 100 µM (inactive) each time. The GI50 in the test on SF-268, in the test on SK-OV-3, in the test with NCI-H460, in the test with UACC-257, in the test on IGROV-1 and in the test on HOP-92 was > 100 µM (inactive) throughout. Also, the GI50 in the test on Hs-578T, with HCT-116, in the test with NCI-H522, in the test with SW-620 and with SN12C was > 100 µM (inactive) throughout.

Turning to `COC(=O)C1(C)CCCC2(C)C3CCC4CC3(C=C4CO)CCC12` (stereo not given), the GI50 in the test on MDA-N is 46.7 µM (inactive); in the test on SR, 27.6 µM (inactive); in the test with 786-0, 43.4 µM (inactive); in the test with SK-MEL-2, 82.4 µM (inactive); in the test with SK-MEL-5 it was 37.2 µM (inactive); in the test with M14, 93.8 µM (inactive). Further, the GI50 was 37.8 µM (inactive) in the test on SF-268; > 100 µM (inactive) with SK-OV-3; 41.9 µM (inactive) in the test with UACC-257; > 100 µM (inactive) with IGROV-1; 55.1 µM (inactive) in the test on HOP-92; > 100 µM (inactive) with Hs-578T. Also, the GI50 with HCC 2998 was 39.6 µM (inactive); in the test on HCT-116, 30.6 µM (inactive); in the test on NCI-H522, 34.2 µM (inactive); with SW-620, 69.2 µM (inactive); with SN12C, 20.3 µM (inactive).

The term GI50 denotes the concentration that inhibits growth by half.
